Patent publication US20250163119A1, “COMPOUNDS FOR THE TREATMENT OF DIABETES OR OBESITY” (Eli Lilly and Company, priority 2023, published 2025)
*1 amine or outer side, *2 acyl side, *3 side chain or, on linkers, in order; H or OH if unused. Where a SMILES comes first, the peptide text is derived from it. Side-chain parts run from the residue outwards. [ ]: non-standard residue; d: D form. The star is where a group is joined. C20 diacid = O=C(O)CCCCCCCCCCCCCCCCCCC(=O)*; γGlu = O=C(O)[C@H](CCC(=O)[*:2])N[*:1]; εLys = N[C@@H](CCCCN[*:1])C(=O)[*:2]; NMeI = CC[C@H](C)[C@H](NC)C(=O)O; αMeL = CC(C)C[C@](C)(N)C(=O)O; AEEA = NCCOCCOCC(=O)O; Aib = CC(C)(N)C(=O)O

Legend:
[1] = biological target: T1, human CRHR1 (Homo sapiens, UniProt P34998); assay: Human CRHR1 cAMP assay (HTRF) in HEK293 cells stably expressing human CRHR1; type: cell-based; conditions: HEK293 cells overexpressing human CRHR1; relative EC50, maximum 66 nM human UCN1; mean ± SE; read-out: hCRHR1 cAMP EC50 (pM, ± SE)
T1 construct: expressed in transfected cells
T1 sequence (P34998 24-415): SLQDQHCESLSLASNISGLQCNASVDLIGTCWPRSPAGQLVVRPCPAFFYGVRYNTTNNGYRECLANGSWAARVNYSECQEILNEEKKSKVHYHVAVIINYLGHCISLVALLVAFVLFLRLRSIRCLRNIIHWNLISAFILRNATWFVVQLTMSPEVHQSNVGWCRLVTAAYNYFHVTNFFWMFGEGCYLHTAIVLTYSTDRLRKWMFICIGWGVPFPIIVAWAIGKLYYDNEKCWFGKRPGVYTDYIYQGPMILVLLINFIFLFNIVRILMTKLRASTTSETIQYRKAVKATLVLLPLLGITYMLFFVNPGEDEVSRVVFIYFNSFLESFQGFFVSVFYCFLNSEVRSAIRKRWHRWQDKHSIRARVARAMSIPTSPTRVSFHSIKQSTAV
Outline: (§1)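 Gs-coupled receptor activation was followed as intracellular cAMP in stably transfected HEK293 cells, 25,000 (CRHR1) or 5,000 (CRHR2) per well, with 0.25 mM IBMX present. Stimulation lasted 1 h at 37° C for CRHR1 and 30 min at room temperature for CRHR2.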

[2] = biological target: T2, human CRHR2 (Homo sapiens, UniProt Q13324); assay: Human CRHR2 cAMP assay (HTRF) in HEK293 cells stably expressing human CRHR2; type: cell-based; conditions: HEK293 cells overexpressing human CRHR2; relative EC50, maximum 10 nM human UCN2; mean ± SE; read-out: hCRHR2 cAMP EC50 (pM, ± SE)
T2 construct: expressed in transfected cells
T2 sequence (Q13324 1-438 isoform Q13324-2): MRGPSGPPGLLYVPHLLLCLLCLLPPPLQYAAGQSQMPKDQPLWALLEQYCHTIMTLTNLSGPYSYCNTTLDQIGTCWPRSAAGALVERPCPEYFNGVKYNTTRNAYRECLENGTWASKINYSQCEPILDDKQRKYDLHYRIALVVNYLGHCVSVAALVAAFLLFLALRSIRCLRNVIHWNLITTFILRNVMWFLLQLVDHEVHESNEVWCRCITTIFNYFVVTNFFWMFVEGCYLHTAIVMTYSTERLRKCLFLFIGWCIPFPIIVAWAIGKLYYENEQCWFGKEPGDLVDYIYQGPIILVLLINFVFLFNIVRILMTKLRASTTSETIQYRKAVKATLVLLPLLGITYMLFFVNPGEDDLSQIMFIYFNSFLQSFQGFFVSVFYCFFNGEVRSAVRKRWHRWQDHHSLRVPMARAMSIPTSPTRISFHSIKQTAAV
Outline: as §1

| Compound | EC50 [1] | EC50 [2] |
| --- | --- | --- |
| CC[C@H](C)[C@H](NC(C)=O)C(=O)N[C@H](C(=O)N[C@H](C(=O)N[C@@H](CO)C(=O)N[C@@](C)(CC(C)C)C(=O)N[C@@H](CC(=O)O)C(=O)N[C@@H](C(=O)N1CCC[C@H]1C(=O)N[C@H](C(=O)NCC(=O)N[C@@](C)(CC(C)C)C(=O)N[C@@H](CC(C)C)C(=O)N[C@@H](CCC(N)=O)C(=O)N[C@H](C(=O)N[C@@H](CCCCN)C(=O)N[C@@H](CC(C)C)C(=O)N[C@@H](CCC(=O)O)C(=O)N[C@@H](CCC(N)=O)C(=O)N[C@@H](CCC(=O)O)C(=O)N[C@@H](CCCNC(=N)N)C(=O)N[C@@H](C)C(=O)N[C@@H](CCC(=O)O)C(=O)N[C@@H](CCCCN)C(=O)N[C@@H](C)C(=O)N[C@@H](CCCNC(=N)N)C(=O)N[C@@H](CCC(N)=O)C(=O)N[C@@H](CCC(N)=O)C(=O)N[C@@H](C)C(=O)N[C@@H](CCCCNC(=O)COCCOCCNC(=O)COCCOCCNC(=O)CC[C@H](NC(=O)CCCCCCCCCCCCCCCCCCC(=O)O)C(=O)O)C(=O)N[C@@H](CCC(=O)O)C(=O)N[C@@H](CC(N)=O)C(=O)N[C@H](C(=O)N[C@@H](CCC(=O)O)C(=O)N[C@H](C(=O)N[C@@H](CC(C)C)C(=O)N[C@@H](C)C(=O)N[C@@H](CCC(N)=O)C(=O)N[C@H](C(N)=O)C(C)C)[C@@H](C)CC)[C@@H](C)O)[C@@H](C)CC)[C@@H](C)O)C(C)C)[C@@H](C)O)C(C)C [SEQ ID NO: 29, Ac-IVTS αMeL D (D-Val) PTG αMeL LQIKLEQERAEKARQ QAK((2-[2-(2-Amino-ethoxy)-ethoxy]-acetyl)2-γE-CO-(CH2)18-CO2H)ENTEILAQV-NH2] (Ac-IVTS[αMeL]D[dV]PTG[αMeL]LQIKLEQERAEKARQQAK([AEEA-AEEA-γGlu-C20 diacid])ENTEILAQV-NH2) | > 1e+07 pM | 5.6 ± 0.4 pM |
| CC[C@H](C)[C@H](NC)C(=O)N[C@H](C(=O)N[C@H](C(=O)N[C@@H](CO)C(=O)N[C@@H](CC(C)C)C(=O)N[C@@H](CC(=O)O)C(=O)N[C@H](C(=O)N1CCC[C@H]1C(=O)N[C@H](C(=O)NCC(=O)N[C@@](C)(CC(C)C)C(=O)N[C@@H](CC(C)C)C(=O)N[C@@H](CCC(N)=O)C(=O)N[C@@H](CCCCN)C(=O)N[C@@H](CC(C)C)C(=O)N[C@H](C(=O)N[C@@H](CCC(=O)O)C(=O)N[C@@H](CCC(N)=O)C(=O)N[C@@H](CCC(=O)O)C(=O)N[C@@H](CCCCN)C(=O)N[C@@H](CCC(N)=O)C(=O)N[C@@H](CCC(=O)O)C(=O)N[C@@H](CCCCN)C(=O)N[C@@H](CCC(=O)O)C(=O)N[C@@H](CCCCN)C(=O)N[C@@H](CCC(N)=O)C(=O)N[C@@H](CCC(N)=O)C(=O)N[C@@H](C)C(=O)N[C@@H](CCCCNC(=O)COCCOCCNC(=O)COCCOCCNC(=O)CC[C@H](NC(=O)CCCCCCCCCCCCCCCCCCC(=O)O)C(=O)O)C(=O)N[C@@H](CCC(=O)O)C(=O)N[C@@H](CC(N)=O)C(=O)N[C@H](C(=O)N[C@@H](CCC(=O)O)C(=O)N[C@H](C(=O)N[C@@H](CC(C)C)C(=O)N[C@@H](C)C(=O)N[C@@H](CCC(N)=O)C(=O)N[C@H](C(N)=O)C(C)C)[C@@H](C)CC)[C@@H](C)O)[C@@H](C)CC)[C@@H](C)CC)C(C)C)[C@@H](C)O)C(C)C [SEQ ID NO: 49, (NMeI) VTSLDVPIG αMeL LQKLIEQEKQEKEKQQAK((2-[2-(2-Amino-ethoxy)-ethoxy]-acetyl)2-γE-CO-(CH2)18-CO2H)ENTEILAQV-NH2] (H-[NMeI]VTSLDVPIG[αMeL]LQKLIEQEKQEKEKQQAK([AEEA-AEEA-γGlu-C20 diacid])ENTEILAQV-NH2) | > 1e+07 pM | 6.6 ± 0.9 pM |
| CC[C@H](C)[C@H](NC(C)=O)C(=O)N[C@H](C(=O)N[C@H](C(=O)N[C@@H](CO)C(=O)N[C@@](C)(CC(C)C)C(=O)N[C@@H](CC(=O)O)C(=O)N[C@@H](C(=O)N1CCC[C@H]1C(=O)N[C@H](C(=O)NC(C)(C)C(=O)N[C@@](C)(CC(C)C)C(=O)N[C@@H](CC(C)C)C(=O)N[C@@H](CCC(N)=O)C(=O)N[C@H](C(=O)N[C@@H](CCCCN)C(=O)N[C@@H](CC(C)C)C(=O)N[C@@H](CCC(=O)O)C(=O)N[C@@H](CCC(N)=O)C(=O)N[C@@H](CCC(=O)O)C(=O)N[C@@H](CCCNC(=N)N)C(=O)N[C@@H](C)C(=O)N[C@@H](CCC(=O)O)C(=O)N[C@@H](CCCCN)C(=O)N[C@@H](C)C(=O)N[C@@H](CCCNC(=N)N)C(=O)N[C@@H](CCC(N)=O)C(=O)N[C@@H](CCC(N)=O)C(=O)N[C@@H](C)C(=O)N[C@@H](CCCCNC(=O)COCCOCCNC(=O)COCCOCCNC(=O)CC[C@H](NC(=O)CCCCCCCCCCCCCCCCCCC(=O)O)C(=O)O)C(=O)N[C@@H](CCC(=O)O)C(=O)N[C@@H](CC(N)=O)C(=O)N[C@H](C(=O)N[C@@H](CCC(=O)O)C(=O)N[C@H](C(=O)N[C@@H](CC(C)C)C(=O)N[C@@H](C)C(=O)N[C@@H](CCC(N)=O)C(=O)N[C@H](C(N)=O)C(C)C)[C@@H](C)CC)[C@@H](C)O)[C@@H](C)CC)[C@@H](C)O)C(C)C)[C@@H](C)O)C(C)C [SEQ ID NO: 41, Ac-IVTS αMeL D (D-Val) PT Aib αMeL LQIKLEQERAEKARQQAK((2-[2-(2-Amino-ethoxy)-ethoxy]-acetyl)2-γE-CO-(CH2)18-CO2H)ENTEILAQV-NH2] (Ac-IVTS[αMeL]D[dV]PT[Aib][αMeL]LQIKLEQERAEKARQQAK([AEEA-AEEA-γGlu-C20 diacid])ENTEILAQV-NH2) | 3.7e+06 pM | 7 ± 0.9 pM |
| CC[C@H](C)[C@H](NC)C(=O)N[C@H](C(=O)N[C@H](C(=O)N[C@@H](CO)C(=O)N[C@@H](CC(C)C)C(=O)N[C@@H](CC(=O)O)C(=O)N[C@H](C(=O)N1CCC[C@H]1C(=O)N[C@H](C(=O)NCC(=O)N[C@@](C)(CC(C)C)C(=O)N[C@@H](CC(C)C)C(=O)N[C@@H](CCC(N)=O)C(=O)N[C@@H](CCCCN)C(=O)N[C@@H](CC(C)C)C(=O)N[C@@H](CC(C)C)C(=O)N[C@@H](CCC(=O)O)C(=O)N[C@@H](CCC(N)=O)C(=O)N[C@@H](CCC(=O)O)C(=O)N[C@@H](CCCNC(=N)N)C(=O)N[C@@H](C)C(=O)N[C@@H](CCC(=O)O)C(=O)N[C@@H](CCCCN)C(=O)N[C@@H](C)C(=O)N[C@@H](CCCNC(=N)N)C(=O)N[C@@H](CCC(N)=O)C(=O)N[C@@H](CCC(N)=O)C(=O)N[C@@H](C)C(=O)N[C@@H](CCCCNC(=O)COCCOCCNC(=O)COCCOCCNC(=O)CC[C@H](NC(=O)CCCCCCCCCCCCCCCCCCC(=O)O)C(=O)O)C(=O)N[C@@H](CCC(=O)O)C(=O)N[C@@H](C)C(=O)N[C@@H](C)C(=O)N[C@@H](CCC(=O)O)C(=O)N[C@H](C(=O)N[C@@H](CC(C)C)C(=O)N[C@@H](C)C(=O)N[C@@H](CCC(N)=O)C(=O)N[C@H](C(N)=O)C(C)C)[C@@H](C)CC)[C@@H](C)CC)C(C)C)[C@@H](C)O)C(C)C [SEQ ID NO: 50, (NMeI) VTSLDVPIG αMeL LQKLLEQERAEKARQQAK((2-[2-(2-Amino-ethoxy)-ethoxy]-acetyl)2-γE-CO-(CH2)18-CO2H)EAAEILAQV-NH2] (H-[NMeI]VTSLDVPIG[αMeL]LQKLLEQERAEKARQQAK([AEEA-AEEA-γGlu-C20 diacid])EAAEILAQV-NH2) | > 1e+07 pM | 22.4 ± 3.6 pM |

Continued, values first:

| EC50 [1] | EC50 [2] | Compound |
| --- | --- | --- |
| > 1e+07 pM | 9.3 ± 1.1 pM | Ac-GSPSIVTS[αMeL]DVPT[Aib][αMeL]LQKILEQERAEKARQQAK([γGlu-AEEA-εLys-C20 diacid])EAAEILAQV-NH2 [SEQ ID NO: 1, Ac-GSPSIVTS αMeL DVPT Aib αMeL LQKILEQERAEKARQQAK(γE-(2-[2-(2-Amino-ethoxy)-ethoxy]-acetyl)-ϵK-CO-(CH2)18-CO2H)EAAEILAQV-NH2] |
| > 1e+07 pM | 26.7 ± 3.8 pM | Ac-PPPIVTS[αMeL]DVPT[Aib][αMeL]LQKLLEQERAEKARQQAK([γGlu-AEEA-εLys-C20 diacid])EAAEILAQV-NH2 [SEQ ID NO: 48, Ac-PPPIVTS αMeL DVPT Aib αMeL LQKLLEQERAEKARQQAK(γE-(2-[2-(2-Amino-ethoxy)-ethoxy]-acetyl)-ϵK-CO-(CH2)18-CO2H)EAAEILAQV-NH2] |
| > 1e+07 pM | 12.3 ± 1.8 pM | Ac-GSPSIVTS[αMeL]DVPT[Aib][αMeL]LQKLLEQERAEKARQQAK([γGlu-AEEA-εLys-C20 diacid])EAAEILAQV-NH2 [SEQ ID NO: 2, Ac-GSPSIVTS αMeL DVPT Aib αMeL LQKLLEQERAEKARQQAK(γE-(2-[2-(2-Amino-ethoxy)-ethoxy]-acetyl)-ϵK-CO-(CH2)18-CO2H)EAAEILAQV-NH2] |
| > 1e+07 pM | 6.9 ± 0.5 pM | {C20 diacid-εLys-AEEA-γGlu}-GSPSIVTS[αMeL]DVPT[Aib][αMeL]LQKILEQERAEKARQQATEAAEILAQV-NH2 [SEQ ID NO: 25] |
